Reference: patent publication US8007835B2, “Hibiscusanthocyanins for inhibiting cancers” (Aiken Biotechnology International Co., Ltd., priority 2005, dated 2011)

Legend:
c-Jun = experiment: Western blot, phosphorylated c-Jun in HL-60 cells; type: cell-based, human; settings: pretreatment with SB203580 (50 AM), then HAs 3 mg/ml 6 h
Protocol: (§1) The medium was removed, and the cells were rinsed with TBS at room temperature. Then 500 μl of cold RIPA buffer (1% NP-40, 50 mM Tris-base, 0.1% SDS, 0.5% deoxycholic acid, and 150 mM NaCl, pH 7.5) with three kinds of proteinase freshly added (10 μg/ml leupeptin, 10 μg/ml PMSF, and 17 μg/ml sodium orthovanadate) were used. After sonication for 1 h at 4° C., a centrifugation (10,000×g) of cell lysate was performed for 10 min at 4° C. The supernatant (50 μg protein) was mixed with an equal volume of electrophoresis sample buffer and boiled for 10 min, which was then subjected to SDS-polyacrylamide gel electrophoresis using a 10% running gel, and electroblotted to nitrocellulose membranes (Millipore, Bedford, Mass., USA). Nonspecific binding was blocked by incubation of the membrane with TBS containing 1% (W/V) nonfat dry milk and 0.1% (v/v) Tween-20 (TBST) for more than 2 h. Membranes were washed with TBST three times for 10 min and incubated with appropriate dilution of primary antibody in TBST for 2 h. Membranes were then extensively washed with TBST before being incubated with appropriate horseradish peroxidase-conjugated secondary antibody for 1 h. After washing the membrane three times, 10 min each in TBST, detection was performed using ECLWestern blotting detection reagents (Amersham, Arlington Heights, Ill., USA).

Fas = experiment: Western blot, Fas expression in HL-60 cells; type: cell-based, human; settings: pretreatment with SB203580 (50 AM), then HAs 3 mg/ml 6 h
Protocol: as §1

FasL = experiment: Western blot, FasL expression in HL-60 cells; type: cell-based, human; settings: pretreatment with SB203580 (50 AM), then HAs 3 mg/ml 6 h
Protocol: as §1

HL-60 cells = experiment: Flow cytometry (PI) cell cycle and quantification of apoptosis; settings: for effect of inhibitor on HAs-induced apoptosis (cytotoxic action of HAs): PD98059 25 AM, SP600125 20 AM, wortmannin 1 AM, then HAs 3 mg/ml 24 h
Protocol: Flow cytometric analysis of HL-60 cells was performed on the 24-h cultures using a FACScan. The cells of harvest were centrifuged at 1000 rpm for 5 min at room temperature. Thereafter, cells were washed once with Tris-buffered saline (TBS). Then cell suspension was centrifuged again (1000 rpm, 5 min) and resuspended in 70% ethanol. After incubation at −20 for at least 24 h, the cells were resuspended in 1 ml of cell cycle assay buffer [50 μg/ml propidium iodide (PI), 50 μg/ml RNase A, and 0.1% Triton X-100], and it was incubated for 15 min in darkness. Propidium iodide (Sigma) was excited at 488 nm, and fluorescence signal was subjected to logarithmic amplification with PI fluorescence (red) being detected above 600 nm. Cell cycle distribution is presented as the number of cells versus the amount of DNA as indicated by the intensity of fluorescence, and the extent of apoptosis was determined by counting cells of DNA content below the G0/G1 peak.

C[S+]([O-])c1ccc(-c2nc(-c3ccc(F)cc3)c(-c3ccncc3)[nH]2)cc1 (stereo not shown) [SB203580, 4-[4-fluorophenyl]-2-[4-methylsulfinylphenyl]-5-[4-pyridyl]-1H-imidazole]
c-Jun (phospho-c-Jun) expression (c-Jun): down-regulated
Fas expression (Fas): down-regulated
FasL expression (FasL): down-regulated
reduction in the sub-G1 phase compared to HAs alone (HL-60 cells; 50 AM SB203580 followed by 24-h exposure to HAs (3 mg/ml)): ~50%
sub-G1 phase (HL-60 cells; 50 AM SB203580 preincubation followed by 24-h exposure to HAs (3 mg/ml)): 27.39%

Oc1c2ccccc2c2c3c(cccc13)N=N2 [SP600125, 1,9-pyrazoloanthrone]
effect of inhibitor on HAs-induced apoptosis (cytotoxic action of HAs) (HL-60 cells): did not reduce the cytotoxic action of HAs

COC[C@H]1OC(=O)c2coc3c2[C@@]1(C)C1=C(C3=O)[C@@H]2CCC(=O)[C@@]2(C)C[C@H]1OC(C)=O [wortmannin]
effect of inhibitor on HAs-induced apoptosis (cytotoxic action of HAs) (HL-60 cells): did not reduce the cytotoxic action of HAs
